Experiment [1] concerns PA-TU-8988T cells. Put plainly: soft agar colony formation assay, PA-TU-8988T cells. It is filed as cell-based. The note with it: for IC50: PA-TU-8988T cells, pre-determined by dose-response assay; for Colony count: PA-TU-8988T, duplicate wells. The protocol:
The IC50 and EC50 values for each combination partner (a) and (b) with the specific cell lines are determined from the response plot. A dose-response assay for each combination partner and the combination at different concentrations based on the IC50 values of each combination partner was performed. Computed EC50-EC95 values were then generated by a software (as disclosed herein) based on the drug concentration and the respective colony growth numbers. 6. Cell lines used and number of cells seeded per well [table] (1) Base Layer—0.6% Agar per 300 μL per well. Microwave the agar for 1-2 min so that it is completely melted. Add 5.4 ml of the melted agar into 21.6 ml of pre-warmed media (All media and agar preparation is made in excess for 2.5 plates). Aliquot 300 μl of the suspension into each well, avoiding the first and last columns of the plates. Fill the first and last columns of wells with 500 μl of sterile water or phosphate buffered saline. Incubate the plates in 37° C. incubator for 45 min-1 hr to allow agar to solidify. (2) Middle Layer— 0.3% Agar plus corresponding number of cells per well Trypsinize the adherent cells and suspend them in 5 ml of media. Determine the number of cells in the suspension and calculate the volume of cell suspension required for seeding. Mix the agar and media together first, excluding the volume of cell suspension. Add the cell suspension last into the mixture. Mix well and aliquot 250 μl into each well containing the base layer. Incubate the plates in a 37° C. incubator for 1-1.5 hrs to allow the agar to solidify. […] Prepare the required concentration of compounds based on the IC50 values of each drug. (Pre-determine the IC50 values for each drug with the corresponding cell-line using a dose-response assay) Row A& B: Aliquot 250 μl of diluted Drug A per well Row C&D: Aliquot 250 μl of diluted Drug B per well Row E& F: Aliquot 250 μl of diluted Drug A and B mixed at 1:1 ratio for each well Assay Results Analysis Method • 1. Score the colonies after 2 to 3 weeks depending on the colony forming status for different cell line. • 2. Before scoring the colonies, add 35 μl MTT (5 mg/ml) to the wells with cells and incubate at 37° C. for 2-3 hrs depending on the intensity of colour development. • 3. Once the colonies are stained, count the total number of colonies formed using the Oxford Optronix GelCount® instrument. • 4. Average the total number of colonies obtained for each drug dose point and represent it as a fraction over the control. This represents the fraction of colony growth. […] Incorporate the fraction of inhibition and the corresponding dose values into the Chou Talalay Software available online (http://www.combosyn.com/) to obtain the combination index values. • 6. The combination index values will give an indication as to whether the combined drugs are synergistic, antagonistic or additive in the treated cells, as shown in Table 2 below. FIG. 12 illustrates a dose-response assay plate containing PA-TU-8988T cells (Test 1) after testing compounds at different concentrations based on the IC50 values of each compound. […] is a cell line established from pancreatic adenocarcinoma (pancreatic cancer).

The subject of experiment [2] is CFPAC-1 cells. Put plainly: soft agar colony formation assay, CFPAC-1 cells. Type of experiment: cell-based. The note with it: for Colony count: duplicate wells; for IC50: CFPAC-1 cells, pre-determined by dose-response assay. The protocol: The IC50 and EC50 values for each combination partner (a) and (b) with the specific cell lines are determined from the response plot. A dose-response assay for each combination partner and the combination at different concentrations based on the IC50 values of each combination partner was performed. Computed EC50-EC95 values were then generated by a software (as disclosed herein) based on the drug concentration and the respective colony growth numbers.
6. Cell lines used and number of cells seeded per well
(1) Base Layer—0.6% Agar per 300 μL per well.
Microwave the agar for 1-2 min so that it is completely melted. Add 5.4 ml of the melted agar into 21.6 ml of pre-warmed media (All media and agar preparation is made in excess for 2.5 plates). Aliquot 300 μl of the suspension into each well, avoiding the first and last columns of the plates. Fill the first and last columns of wells with 500 μl of sterile water or phosphate buffered saline. Incubate the plates in 37° C. incubator for 45 min-1 hr to allow agar to solidify.
(2) Middle Layer— 0.3% Agar plus corresponding number of cells per well
Trypsinize the adherent cells and suspend them in 5 ml of media. Determine the number of cells in the suspension and calculate the volume of cell suspension required for seeding. Mix the agar and media together first, excluding the volume of cell suspension. Add the cell suspension last into the mixture. Mix well and aliquot 250 μl into each well containing the base layer. Incubate the plates in a 37° C. incubator for 1-1.5 hrs to allow the agar to solidify.
Prepare the required concentration of compounds based on the IC50 values of each drug.
(Pre-determine the IC50 values for each drug with the corresponding cell-line using a dose-response assay)
Row A& B: Aliquot 250 μl of diluted Drug A per well
Row C&D: Aliquot 250 μl of diluted Drug B per well
Row E& F: Aliquot 250 μl of diluted Drug A and B mixed at 1:1 ratio for each well
Assay Results Analysis Method • 1. Score the colonies after 2 to 3 weeks depending on the colony forming status for different cell line. • 2. Before scoring the colonies, add 35 μl MTT (5 mg/ml) to the wells with cells and incubate at 37° C. for 2-3 hrs depending on the intensity of colour development. • 3. Once the colonies are stained, count the total number of colonies formed using the Oxford Optronix GelCount® instrument. • 4. Average the total number of colonies obtained for each drug dose point and represent it as a fraction over the control. This represents the fraction of colony growth. […] Incorporate the fraction of inhibition and the corresponding dose values into the Chou Talalay Software available online (http://www.combosyn.com/) to obtain the combination index values. • 6. The combination index values will give an indication as to whether the combined drugs are synergistic, antagonistic or additive in the treated cells, as shown in Table 2 below.
FIG. 8 illustrates a dose-response assay plate containing CFPAC-1 cells (Test 1) after testing compounds at different concentrations based on the IC50 values of each compound. CFPAC-1 is a cell line established from cystic fibrosis and pancreatic ductal adenocarcinoma.

[3] abbreviates: Test 1, 0.25x IC50: dose Olaparib 0.2525, Ex 1 0.275, combination both 1:1.
Setting [4] is: Test 1, 0.5x IC50: dose Olaparib 0.505, Ex 1 0.55, combination both 1:1.
The mark [5] stands for this setting: Test 1, 1x IC50: dose Olaparib 1.01, Ex 1 1.1, combination both 1:1.
Setting [6] is: Test 1, 2x IC50: dose Olaparib 2.02, Ex 1 2.2, combination both 1:1.
[7] abbreviates: Test 1, 4x IC50: dose Olaparib 4.04, Ex 1 4.4, combination both 1:1.
The mark [8] stands for this setting: Test 2, 0.25x IC50: dose Olaparib 0.2525, Ex 1 0.275, combination both 1:1.
Setting [9] is: Test 2, 0.5x IC50: dose Olaparib 0.505, Ex 1 0.55, combination both 1:1.
[10] abbreviates: Test 2, 1x IC50: dose Olaparib 1.01, Ex 1 1.1, combination both 1:1.
The mark [11] stands for this setting: Test 2, 2x IC50: dose Olaparib 2.02, Ex 1 2.2, combination both 1:1.
Setting [12] is: Test 2, 4x IC50: dose Olaparib 4.04, Ex 1 4.4, combination both 1:1.
[13] abbreviates: CFPAC-1, Test 1, 0.25x IC50: dose Olaparib 1.5625, Ex 1 0.00675, combination both 1:1.
[14] abbreviates: CFPAC-1, Test 1, 0.5x IC50: dose Olaparib 3.125, Ex 1 0.0135, combination both 1:1.
Setting [15] is: CFPAC-1, Test 1, 1x IC50: dose Olaparib 6.25, Ex 1 0.027, combination both 1:1.
The mark [16] stands for this setting: CFPAC-1, Test 1, 2x IC50: dose Olaparib 12.5, Ex 1 0.054, combination both 1:1.
Setting [17] is: CFPAC-1, Test 1, 4x IC50: dose Olaparib 25, Ex 1 0.108, combination both 1:1.
Setting [18] is: CFPAC-1, Test 2, 0.25x IC50: dose Olaparib 1.5625, Ex 1 0.00675, combination both 1:1.
[19] abbreviates: CFPAC-1, Test 2, 1x IC50: dose Olaparib 6.25, Ex 1 0.027, combination both 1:1.
[20] abbreviates: CFPAC-1, Test 2, 2x IC50: dose Olaparib 12.5, Ex 1 0.054, combination both 1:1.
[21] abbreviates: CFPAC-1, Test 2, 4x IC50: dose Olaparib 25, Ex 1 0.108, combination both 1:1.

Where “and” joins values, the source holds several entries; their conditions need not be identical. Equal entries are not always repeated.

Results on two compounds are retold here after US20230076733A1, “Combination Therapy” (AGENCY FOR SCIENCE, TECHNOLOGY AND RESEARCH, priority 2020, published 2023).

For the compound `Cn1c(=O)c2c(ncn2CC(=O)Nc2ccc(-c3ccccc3)nn2)n(C)c1=O` [Ex 1, 2-(1,3-dimethyl-2,6-dioxo-2,3-dihydro-1H-purin-7 (6H)-yl)-N-(6-phenylpyridazin-3-yl)acetamide], the 50% inhibitory concentration (IC50) (usually the point on the concentration scale where inhibition reaches its midpoint) in experiment [1] came out at 1100 nM; in experiment [2] it was 0.027 µM. For the same compound, the Colony count in experiment [1] (setting [3]) is 420 and 494; in experiment [1] (setting [4]), 343 and 488; in experiment [1] (setting [5]), 215 and 393; in experiment [1] (setting [6]) it was 250 and 311; in experiment [1] (setting [7]) it was 212 and 296; in experiment [1] (setting [8]), 200 and 237. Further, the Colony count was 143 and 227 in experiment [1] (setting [9]); 156 and 209 in experiment [1] (setting [10]); 155 and 215 in experiment [1] (setting [11]); 125 and 186 in experiment [1] (setting [12]); 441 and 464 in experiment [2] (setting [13]); 445 and 505 in experiment [2] (setting [14]). Moreover, the Colony count in experiment [2] (setting [15]) is 386 and 412; in experiment [2] (setting [16]) it was 346 and 322; in experiment [2] (setting [17]), 315 and 320; in experiment [2] (setting [18]), 676 and 624; in experiment [2] (setting [19]), 649 and 563; in experiment [2] (setting [20]), 581 and 588. In experiment [2] (setting [21]), the Colony count is 536 and 527.
With `O=C(c1cc(Cc2n[nH]c(=O)c3ccccc23)ccc1F)N1CCN(C(=O)C2CC2)CC1` [Olaparib, reference compound], the IC50 was found to be 1010 nM in experiment [1] (Homo sapiens, PaTu 8988t) and 6.25 µM in experiment [2] (Homo sapiens). Further, the Colony count in experiment [1] (setting [3]) was 537 and 426; in experiment [1] (setting [4]), 425 and 331; in experiment [1] (setting [5]), 398 and 327; in experiment [1] (setting [6]), 411 and 325; in experiment [1] (setting [7]), 362 and 307; in experiment [1] (setting [8]), 222 and 170. Moreover, the Colony count was 180 and 155 in experiment [1] (setting [9]); 146 and 150 in experiment [1] (setting [10]); 136 and 143 in experiment [1] (setting [11]); 180 and 125 in experiment [1] (setting [12]); 441 and 429 in experiment [2] (setting [13]); 314 and 309 in experiment [2] (setting [14]). The Colony count in experiment [2] (setting [15]) was 259 and 289; in experiment [2] (setting [16]), 194 and 196; in experiment [2] (setting [17]), 80 and 97; in experiment [2] (setting [18]), 586 and 545; in experiment [2] (CFPAC-1, Test 2, 0.5x IC50: dose Olaparib 3.125, Ex 1 0.0135, combination both 1:1), 439 and 442; in experiment [2] (setting [19]), 328 and 371. In addition, the Colony count in experiment [2] (setting [20]) was 254 and 255; in experiment [2] (setting [21]) it was 116 and 111.
